Test results taken from patent publication US20090247520A1, “INHIBITORS OF ANTIGEN RECEPTOR-INDUCED NF-kappa B ACTIVATION” (The Burnham Institute for Medical Research, priority 2008, published 2009).
Where two headings read alike, the source gives them in different places.

Key:
[1] = system: PMA/Ionomycin-induced NF-κB reporter gene activity; test: Transient transfection NF-κB-luciferase reporter assay (episomal plasmid), PMA/Ionomycin; format: cell-based; conditions: not shown
Protocol: Dual-luciferase assay for NF-κB activity. Cells seeded in 96 well black plates were co-transfected with Renilla luciferase plasmid and NF-κB-responsive firefly luciferase reporter gene plasmid, with pcDNA3 control or plasmids encoding various desired proteins, using Lipofectamine 2000. The culture medium was aspirated and cells were washed with PBS, prior to adding 50 μL per well of Passive Lysis Buffer (Promega), followed by addition of Dual-luciferase assay reagent (Promega) and measurement of firefly and renilla luciferase activity, using a spectrofluorimeter.

JAK2 = target: T1, JAK2 (Homo sapiens, UniProt O60674); test: KINOMEscan competition binding assay, JAK2
T1 construct: proprietary tag (Ambit); purchased Ambit, Inc
T1 sequence (O60674 whole entry): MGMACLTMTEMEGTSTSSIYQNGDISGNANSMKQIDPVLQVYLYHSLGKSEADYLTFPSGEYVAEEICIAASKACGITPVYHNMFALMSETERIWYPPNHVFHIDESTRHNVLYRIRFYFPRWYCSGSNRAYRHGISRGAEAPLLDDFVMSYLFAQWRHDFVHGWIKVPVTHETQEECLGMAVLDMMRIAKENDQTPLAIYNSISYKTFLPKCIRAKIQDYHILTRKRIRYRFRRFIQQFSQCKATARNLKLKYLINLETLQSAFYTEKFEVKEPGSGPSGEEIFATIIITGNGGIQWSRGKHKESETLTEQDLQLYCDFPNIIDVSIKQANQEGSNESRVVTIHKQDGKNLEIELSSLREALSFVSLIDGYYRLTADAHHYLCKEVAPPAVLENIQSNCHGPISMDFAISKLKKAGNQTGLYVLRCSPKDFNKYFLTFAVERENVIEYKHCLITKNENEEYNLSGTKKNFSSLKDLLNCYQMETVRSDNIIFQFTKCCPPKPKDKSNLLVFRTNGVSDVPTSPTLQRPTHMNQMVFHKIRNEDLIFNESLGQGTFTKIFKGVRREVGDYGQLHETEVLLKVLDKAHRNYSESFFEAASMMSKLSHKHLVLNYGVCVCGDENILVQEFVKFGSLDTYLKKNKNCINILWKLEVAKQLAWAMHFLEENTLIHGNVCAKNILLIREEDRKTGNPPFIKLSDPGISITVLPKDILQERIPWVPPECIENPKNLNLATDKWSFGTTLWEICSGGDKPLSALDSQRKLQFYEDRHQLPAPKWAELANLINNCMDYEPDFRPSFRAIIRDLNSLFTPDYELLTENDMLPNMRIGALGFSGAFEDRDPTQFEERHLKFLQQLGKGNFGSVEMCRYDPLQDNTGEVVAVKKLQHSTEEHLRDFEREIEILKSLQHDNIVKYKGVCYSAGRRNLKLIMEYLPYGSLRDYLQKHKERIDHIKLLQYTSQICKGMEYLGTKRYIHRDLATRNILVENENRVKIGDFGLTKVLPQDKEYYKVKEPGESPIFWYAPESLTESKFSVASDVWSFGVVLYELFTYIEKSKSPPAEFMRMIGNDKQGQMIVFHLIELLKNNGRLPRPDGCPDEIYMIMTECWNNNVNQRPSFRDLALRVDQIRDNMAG
From the text: CID-2858522 is not a potent protein kinase inhibitor. Protein kinases play critical roles in NF-κB activation. PKCs are proximal kinases in the NF-κB pathways activated by PMA/Ionomycin and by T- and B-cell antigen receptors, while the IKKs are distal kinases operating in the terminal segments of these and other NF-κB activation pathways. We therefore tested whether CID-2858522 inhibits members of these kinase families by in vitro kinase assays. For these experiments, we tested PKC-beta and PKC-theta (the PKC family members implicated in TCR/BCR signaling), and IKK-beta (a component of the IKK complex) (FIG. 6). […] In addition to assessing these three kinases by conventional in vitro kinase assays, a kinome screen was performed using a high throughput screening method, KINOMEscan™, which is an active-site dependent competition binding assay in which human kinases of interest are fused to a proprietary tag (Ambit). The amount of kinase bound to an immobilized, active-site directed ligand is measured in the presence and absence of the test compound. […] Thus, CID-2858522 inhibits none of the protein kinases previously implicated in regulating NF-κB.
In Vitro Kinase Assays. PKC-beta, PKC-theta and IKK-beta in vitro kinase assays were performed using the HTScan Kinase Assay Kit (Cell Signaling, Danvers, Mass.) according to manufacturer's protocols. […]

purified luciferase = target: T2, purified luciferase (Photinus pyralis, UniProt P08659); test: Luciferase inhibition counter screen, in vitro enzymatic assay; format: biochemical; conditions: not shown
T2 construct: purchased Perkin Elmer
T2 sequence (P08659 whole entry, species assumed): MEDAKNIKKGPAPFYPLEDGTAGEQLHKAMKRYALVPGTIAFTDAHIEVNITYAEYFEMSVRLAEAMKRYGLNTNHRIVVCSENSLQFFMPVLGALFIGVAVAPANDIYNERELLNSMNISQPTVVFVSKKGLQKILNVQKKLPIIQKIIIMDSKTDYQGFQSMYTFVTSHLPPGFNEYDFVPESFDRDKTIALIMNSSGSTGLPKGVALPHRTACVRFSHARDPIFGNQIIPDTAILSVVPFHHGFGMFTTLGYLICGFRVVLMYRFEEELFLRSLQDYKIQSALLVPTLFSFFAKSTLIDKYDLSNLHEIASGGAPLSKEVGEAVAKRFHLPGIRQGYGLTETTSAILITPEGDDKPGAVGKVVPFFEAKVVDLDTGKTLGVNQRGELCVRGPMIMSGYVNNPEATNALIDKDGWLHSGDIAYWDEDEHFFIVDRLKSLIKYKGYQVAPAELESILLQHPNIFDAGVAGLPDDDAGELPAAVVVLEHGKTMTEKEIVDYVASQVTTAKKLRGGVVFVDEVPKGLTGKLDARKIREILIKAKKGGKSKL
Protocol: Counter Screening and Secondary Assays. To counter-screen for inhibitors of the TNF pathway, HEK293-NFκB-Luc cells were seeded at 10^5 cells per well in 90 μL medium in white 96-well plates (Greiner Bio-One) and cultured overnight, before adding compounds (5 μL in medium) to cells. After 2 h incubation, 5 μL TNF (200 ng/mL) (R&D Systems) was added (final concentration 10 ng/mL) and cells were incubated for 16 h. Luciferase activity was measured using Britelite kit (Perkin Elmer). To counter-screen for inhibitors of NF-κB induced by TLR4, CD40, NOD1, NOD2, cIAP2/MALT, or XIAP/TAB, the 293-NF-κB-luc cells cultured in 96 well plates as above were pretreated with compounds for 2 h and then transfected using Lipofectamine 2000 with various plasmids including pcDNA3 (“empty vector” control) or plasmids encoding CD4-TLR4, CD40, NOD1, NOD2, cIAP2/MALT, XIAP/TAB, using 0.2 μL of transfection reagent containing 100 ng DNA per well. Cells were cultured in medium containing CID-2858522 or other compounds and luciferase activity was measured 48 h later. […] Reactions were then initiated by addition of 50 μL 160 nM ATP (Sigma) in PBS and luciferase activity was measured 2 h later using a luminometer (LJL Biosystems, Sunnyvale, Calif.).

[2] = system: PMA/Ionomycin-induced NF-κB reporter gene activity; test: NF-κB luciferase reporter gene assay, PMA/Ionomycin-stimulated HEK293-NF-κB-luc cells; format: cell-based
From the text: The strategy for compound library screening entailed using phorbol ester (phorbol myristic acetate [PMA]) and Ca^2+-ionophore Ionomycin to achieve PKC activation, mimicking the initiating events in the antigen receptor pathway. For convenience, we used HEK293 epithelial cells, in which it has previously been shown by siRNA-mediated gene silencing and transfection of dominant-negative mutants that PMA/Ionomycin-induced NF-κB activation is dependent on CARMA1, Bcl-10, and MALT. HEK293 cells were stably transfected with a luciferase reporter gene driven by a NF-κB responsive promoter, and the responsiveness of this integrated promoter to various NF-κB inducing stimuli was confirmed, including PMA/Ionomycin and TNF. Using these cells, 96- and 384-well plate-based high throughput screening (HTS) assays were established, with good assay performance characteristics (Z′>0.5) (PubChem AID=1384). We initially screened 53,280 chemical compounds at an average concentration of 5 μM, of which 519 primary hits were obtained (based on cut-off of 50% inhibition). Of these, 248 confirmed upon repeat testing (FIG. 1).
Cell engineering. HEK293 cells were co-transfected with pUC13-4xNFκB-Luc and p-TK-puromycin-resistance plasmids. Stable clones were selected by culture in Dulbecco's Modified Eagle's Media (InVitrogen) supplemented with 10% heat-inactivated fetal bovine serum (FBS) (Hyclone), 1% v/v penicillin-streptomycin (InVitrogen) containing 1 μg/mL puromycin. Individual clones were tested for responsiveness to PMA/Ionomycin- and to TNF-induced NF-κB reporter gene activity, and a clone was selected for HTS.
HTS. NF-κB-luciferase expressing HEK293 cells were seeded at […] per well in white 96 well plates (Greiner Bio-One) in 90 μl of DMEM and incubated overnight. 10 μl of compound-containing solution was added to each well (final 1.5 μg/mL in 1% DMSO) using a liquid handler (Biomek™ FX; Beckman Coulter). After 2 h incubation, cells were stimulated using 11 μl of a PMA (final 100 ng/mL; Calbiochem) and ionomycin (final 50 ng/mL; Calbiochem) in DMEM. Cell plates were incubated for 16 h before media was removed and 40 μl of 0.5× passive lysis buffer (Promega Corp.) was added to cell plates. Plates were allowed to stand at room temperature for at least 15 minutes before adding 40 μl of 0.125× luciferin substrate (Promega Corp.) to each well. Plates were analyzed within 30 seconds with a Criterion Analyst™ using the luminescence method (0.1 second read/well).
Several compounds synthesized by the methods described herein were tested for their efficacy at inhibiting Nf-κB activation.

In the case of Cc1cc2nc(NCCCO)n(CC(=O)c3cc(C(C)(C)C)c(O)c(C(C)(C)C)c3)c2cc1C [Compound 1, 2-(2-(3-Hydroxypropylamino)-5,6-dimethyl-1H-benzo[d]imidazol-1-yl)-1-(3,5-di-tert-butyl-4-hydroxyphenyl)ethanone], the “inhibition of NF-κB reporter in transient transfection assay” value [1] is reported as “potently inhibited”, the inhibition at 10 µM (JAK2) is reported as 53% and the “inhibition of luciferase activity” value (purified luciferase) is reported as “did not inhibit”. For the same compound, the IC50 ([2]; Homo sapiens, HEK293 cell line, PMA/Ionomycin, read-out: IC50, suppression of NF-κB reporter gene activity) was ~70 nM, the IC50 ([2]; Homo sapiens, PMA/Ionomycin / PKC activators, HEK293, read-out: IC50, NF-κB reporter gene assay (cellular potency)) was < 100 nM and the “concentration at which maximum inhibition of NF-κB reporter is achieved” value ([2]; PMA/Ionomycin, HEK293) was 0.25 to 0.5 µM. The IC50 ([2]; Table II, read-out: IC50, Inhibition of antigen receptor-mediated Nf-κB) was 70 nM.
